Results from ChEMBL document CHEMBL4613329, “Characterization of Inhibition Reveals Distinctive Properties for Human and Saccharomyces cerevisiae CRM1” (J Med Chem, 2020).
The source made the active and inactive calls. No cut-off for these calls is given here.

Legend:
Exportin-1 [1] = molecular target: T1, Exportin-1 (Homo sapiens, UniProt O14980); assay: Inhibition of immobilized HsCRM1-HsRanGTP-HsSPN binding to C-terminal His6-tagged and MBP-fused full length human CRM1 expressed in Escherichia coli SG13009 at 100 nmol incubated for 20 mins by pull-down assay
Exportin-1 [2] = molecular target: T1, Exportin-1; assay: Inhibition of fluorescently labeled PKI phi(0)Leu NES binding to human CRM1 expressed in Escherichia coli BL21 (DE3) by fluorescence polarization competition binding assay
[3] = test system: Exportin-1 (Homo sapiens), O14980 [C528S]; assay: Inhibition of fluorescently labeled PKI phi(0)Leu NES binding to human CRM1 C528S mutant expressed in Escherichia coli BL21 (DE3) at 62 uM by fluorescence polarization competition binding assay
[4] = molecular target: Exportin-1 (Saccharomyces cerevisiae) (UniProt P30822); assay: Inhibition of fluorescently labeled PKI phi(0)Leu NES binding to Saccharomyces cerevisiae CRM1 expressed in Escherichia coli BL21 (DE3) at 0.5 to 500 uM by fluorescence polarization competition binding assay
[5] = molecular target: Exportin-1 (Saccharomyces cerevisiae) (UniProt P30822); settings: 2 to 2000 nM
Description: Inhibition of fluorescently labeled PKI phi(0)Leu NES binding to Saccharomyces cerevisiae CRM1 expressed in Escherichia coli BL21 (DE3) at 2 to 2000 nM by fluorescence polarization competition binding assay

[6] = test system: Exportin-1 (Homo sapiens), O14980 [C528S]; settings: 200 nM
Description: Inhibition of fluorescently labeled PKI phi(0)Leu NES binding to human CRM1 C528S mutant expressed in Escherichia coli BL21 (DE3) at 200 nM by fluorescence polarization competition binding assay

Saccharomyces cerevisiae [7] = assay: Inhibition of fluorescently labeled PKI phi(0)Leu NES binding to Saccharomyces cerevisiae CRM1 Thr539Cys mutant expressed in Escherichia coli BL21 (DE3) at 2 to 2000 nM by fluorescence polarization competition binding assay
[8] = test system: Exportin-1 (Homo sapiens), O14980 [C528S]; assay: Inhibition of fluorescently labeled PKI phi(0)Leu NES binding to human CRM1 C528S mutant expressed in Escherichia coli BL21 (DE3) at 6 uM by fluorescence polarization competition binding assay
[9] = molecular target: Exportin-1 (Saccharomyces cerevisiae) (UniProt P30822); assay: Inhibition of fluorescently labeled PKI phi(0)Leu NES binding to Saccharomyces cerevisiae CRM1 expressed in Escherichia coli BL21 (DE3) at 0.2 to 200 uM by fluorescence polarization competition binding assay
Saccharomyces cerevisiae [10] = assay: Inhibition of fluorescently labeled PKI phi(0)Leu NES binding to Saccharomyces cerevisiae CRM1 Thr539Cys mutant expressed in Escherichia coli BL21 (DE3) at 0.2 to 200 uM by fluorescence polarization competition binding assay

T1 sequence (O14980 whole entry, the tested form may be a part): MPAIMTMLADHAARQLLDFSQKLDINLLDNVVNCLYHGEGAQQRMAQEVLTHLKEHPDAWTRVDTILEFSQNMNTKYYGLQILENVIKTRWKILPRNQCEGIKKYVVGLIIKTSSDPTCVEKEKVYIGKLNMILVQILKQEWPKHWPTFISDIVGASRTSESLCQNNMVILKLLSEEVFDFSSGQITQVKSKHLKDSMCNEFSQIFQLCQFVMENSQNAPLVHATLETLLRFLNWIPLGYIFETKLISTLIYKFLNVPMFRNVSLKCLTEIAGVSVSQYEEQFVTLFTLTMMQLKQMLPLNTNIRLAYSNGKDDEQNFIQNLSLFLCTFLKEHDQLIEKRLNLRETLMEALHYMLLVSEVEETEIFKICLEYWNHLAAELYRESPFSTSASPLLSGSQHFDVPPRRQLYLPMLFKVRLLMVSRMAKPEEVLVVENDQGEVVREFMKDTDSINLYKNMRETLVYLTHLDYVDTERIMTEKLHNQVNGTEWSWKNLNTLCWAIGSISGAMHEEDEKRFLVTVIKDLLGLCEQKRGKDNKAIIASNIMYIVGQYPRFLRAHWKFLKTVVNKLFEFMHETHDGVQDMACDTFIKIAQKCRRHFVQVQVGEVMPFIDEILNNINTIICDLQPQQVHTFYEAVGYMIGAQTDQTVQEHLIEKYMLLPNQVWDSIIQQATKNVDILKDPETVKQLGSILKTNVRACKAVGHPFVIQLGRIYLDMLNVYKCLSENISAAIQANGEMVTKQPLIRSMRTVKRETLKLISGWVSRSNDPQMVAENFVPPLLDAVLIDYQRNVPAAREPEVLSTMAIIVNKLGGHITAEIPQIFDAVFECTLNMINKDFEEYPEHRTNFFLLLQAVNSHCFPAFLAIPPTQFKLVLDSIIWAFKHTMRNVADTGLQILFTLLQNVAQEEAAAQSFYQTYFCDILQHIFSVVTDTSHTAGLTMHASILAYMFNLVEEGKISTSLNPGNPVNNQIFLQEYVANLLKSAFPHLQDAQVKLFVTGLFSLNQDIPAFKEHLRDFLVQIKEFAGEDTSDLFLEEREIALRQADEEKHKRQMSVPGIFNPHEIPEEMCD
Chain of Exportin-1 (Homo sapiens), O14980 [C528S] (O14980 whole entry C528S): as the sequence (O14980 whole entry, the tested form may be a part) above, with C528S counted along it

Structure (SMILES)	inhibition (Exportin-1 [1])	IC50 (Exportin-1 [2]) [µM]	inhibition [3]	inhibition [4]	inhibition [5]	inhibition [6]	inhibition (Saccharomyces cerevisiae [7])	inhibition (Exportin-1 [2])	inhibition [8]	inhibition [9]	inhibition (Saccharomyces cerevisiae [10])
CCOC(=O)c1n[nH]c2c1C(=O)N(c1ccc([N+](=O)[O-])cc1)C2=O	Active	63	Active	Active	–	–	–	–	–	–	–
CCC(=C/[C@H](C)C/C=C/C(C)=C/[C@@H](C)C(=O)[C@@H](C)[C@H](O)[C@@H](C)C/C(C)=C/C(=O)O)/C=C/[C@@H]1OC(=O)C=C[C@@H]1C [LEPTOMYCIN B]	–	0.151	–	–	inactive	inactive	Active	–	–	–	–
COc1cc2cnsc2s1	inactive	40	inactive	–	–	–	–	Dose-dependent effect	–	–	–
COc1cc(-c2nc(S(=O)(=O)c3ccc(Cl)cc3)c(N(C)C)o2)cc(OC)c1OC	Active	4.2	–	–	–	–	–	Dose-dependent effect	inactive	inactive	inactive
NC(=O)c1c(NC(NC(=O)c2ccccc2F)(C(F)(F)F)C(F)(F)F)sc2c1CCCC2	inactive	59	inactive	–	–	–	–	Dose-dependent effect	–	inactive	inactive
